Measured values as given in patent US7087642B2 (priority 1999, dated 2006).
Where two headings read alike, the source gives them in different places.

Legend:
human PBMC B cells = assay: cells; type: cell-based; settings: read-out: B-cells (IC50)
IMPDH human type II = IMPDH human type II (Homo sapiens, UniProt P12268); assay: biochemical
human PBMC T cells = assay: cells; type: cell-based; settings: read-out: T-cells (IC50)

Compound	IC50 (human PBMC B cells) [nM]	Ki (IMPDH human type II; read-out: Ki) [nM]	IC50 (human PBMC T cells) [nM]	IC50 (human PBMC B cells; Homo sapiens, 72 h) [nM]	IC50 (human PBMC T cells; Homo sapiens, 72 h) [nM]	Ki (IMPDH human type II) [nM]
CC[C@H](CCO)OC(=O)NCc1cccc(NC(=O)Nc2ccc(-c3cnco3)c(OC)c2)c1 [Compound 68]	100 to 1000	< 10	100 to 1000	–	–	–
CCN(CC(OC(=O)NCc1cccc(NC(=O)Nc2ccc(-c3cnco3)c(OC)c2)c1)C1CCCCC1)C(C)C (stereo not drawn) [Compound 158]	–	10 to 50	–	100 to 1000	> 1000	–
CCCN(CCC(OC(=O)NCc1cccc(NC(=O)Nc2ccc(-c3cnco3)c(OC)c2)c1)c1ccccc1)C(C)C (stereo not drawn) [Compound 107]	–	> 50	–	100 to 1000	100 to 1000	–
CC[C@H](CCC#N)OC(=O)NCc1cccc(NC(=O)Nc2ccc(-c3cnco3)c(OC)c2)c1 [Compound 83]	–	10 to 50	–	100 to 1000	100 to 1000	–
COc1cc(NC(=O)Nc2cccc(CNC(=O)OCCCl)c2)ccc1-c1cnco1 [Compound 24]	–	< 10	–	> 1000	> 1000	–
COc1cc(NC(=O)Nc2cccc(CNC(=O)OC3COCC3OCC#N)c2)ccc1-c1cnco1 (stereo not drawn) [Compound 76]	< 100	< 10	< 100	–	–	–
COc1cc(NC(=O)Nc2cccc(CNC(=O)OC[C@H](CC#N)NC(=O)CC(C)(C)C)c2)ccc1-c1cnco1 [Compound 10]	–	< 10	–	> 1000	100 to 1000	–
COc1cc(NC(=O)Nc2cccc(CNC(=O)OC(CC[N+](C)(C)C)c3ccccc3)c2)ccc1-c1cnco1 (stereo not drawn) [Compound 36]	–	–	–	> 1000	> 1000	< 10
COc1cc(NC(=O)Nc2cccc(CNC(=O)O[C@H](CCl)CC#N)c2)ccc1-c1cnco1 [Compound 23]	–	< 10	–	< 100	< 100	–
CCCN(CC(C)C)CC(OC(=O)NCc1cccc(NC(=O)Nc2ccc(-c3cnco3)c(OC)c2)c1)c1ccccc1 (stereo not drawn) [Compound 112]	–	> 50	–	> 1000	> 1000	–
CCN(CC)C[C@H](CC#N)OC(=O)NCc1cccc(NC(=O)Nc2ccc(-c3cnco3)c(OC)c2)c1 [Compound 19]	100 to 1000	< 10	100 to 1000	–	–	–
CCN(CC(C)C)CC(OC(=O)NCc1cccc(NC(=O)Nc2ccc(-c3cnco3)c(OC)c2)c1)c1ccccc1 (stereo not drawn) [Compound 115]	–	> 50	–	> 1000	> 1000	–
COc1cc(NC(=O)Nc2cccc(CNC(=O)OC(CCN3CCOCC3)c3ccccc3)c2)ccc1-c1cnco1 (stereo not drawn) [Compound 48]	–	< 10	–	100 to 1000	100 to 1000	–
CC[C@@H](CO)OC(=O)NCc1cccc(NC(=O)Nc2ccc(-c3cnco3)c(OC)c2)c1 [Compound 61]	–	< 10	–	100 to 1000	100 to 1000	–
CCC(CO)OC(=O)N[C@H](C)c1cccc(NC(=O)Nc2ccc(C#N)c(OC)c2)c1 (stereo partly drawn) [Compound 175]	–	> 50	–	> 1000	> 1000	–
CC[C@H](CO)OC(=O)NCc1cccc(NC(=O)Nc2ccc(-c3cnco3)c(OC)c2)c1 [Compound 60]	–	< 10	–	100 to 1000	100 to 1000	–
COc1cc(NC(=O)Nc2cccc(CNC(=O)O[C@H](CN3CCOCC3)c3ccccc3)c2)ccc1-c1cnco1 [Compound 51]	–	< 10	–	100 to 1000	100 to 1000	–
COc1cc(NC(=O)Nc2cccc(CNC(=O)O[C@@H]3CCN(S(=O)(=O)N(C)C)C3)c2)ccc1-c1cnco1 [Compound 77]	–	< 10	–	100 to 1000	100 to 1000	–
CCCN(C)CCC(OC(=O)NCc1cccc(NC(=O)Nc2ccc(-c3cnco3)c(OC)c2)c1)c1ccccc1 (stereo not drawn) [Compound 118]	–	> 50	–	100 to 1000	100 to 1000	–
COc1cc(NC(=O)Nc2cccc(CNC(=O)OC3COCC3OCC(=O)O)c2)ccc1-c1cnco1 (stereo not drawn) [Compound 73]	> 1000	< 10	> 1000	–	–	–
COc1cc(NC(=O)Nc2cccc(CNC(=O)OC(CC#N)C3CC3)c2)ccc1-c1cnco1 (stereo not drawn) [Compound 104]	–	10 to 50	–	< 100	< 100	–
CCC(OC(=O)NCc1cccc(NC(=O)Nc2ccc(-c3cnco3)c(OC)c2)c1)C1(C#N)CC1 (stereo not drawn) [Compound 103]	–	> 50	–	< 100	100 to 1000	–
CCCN(CC)CCC(OC(=O)NCc1cccc(NC(=O)Nc2ccc(-c3cnco3)c(OC)c2)c1)c1ccccc1 (stereo not drawn) [Compound 119]	–	> 50	–	100 to 1000	100 to 1000	–
CCC(CC#N)OC(=O)NCc1cccc(NC(=O)Nc2ccc(-c3cnco3)c(OC)c2)c1 (stereo not drawn) [Compound 27]	–	< 10	–	< 100	< 100	–
COc1cc(NC(=O)Nc2cccc(CNC(=O)OC(CC#N)CC#N)c2)ccc1-c1cnco1 [Compound 13]	–	< 10	–	100 to 1000	100 to 1000	–
COc1cc(NC(=O)Nc2cccc(CNC(=O)O[C@@H](CN3CCOCC3)c3ccccc3)c2)ccc1-c1cnco1 [Compound 52]	–	< 10	–	> 1000	> 1000	–
COc1cc(NC(=O)Nc2cccc(CNC(=O)OC(CCN(CC(C)C)C(C)C)c3ccccc3)c2)ccc1-c1cnco1 (stereo not drawn) [Compound 130]	–	> 50	–	> 1000	100 to 1000	–
